According to the NIST ThermoML archive (doi:10.1016/j.jct.2013.01.012):

What was measured:
[1] = mn = molality of the nth substance listed, in mol/kg; details: 101 kPa, Liquid; for speed of sound: Sing-around technique in a fixed-path interferometer; for mass density: Vibrating tube method
[2] = refractive index (Na D-line) (dimensionless); mn = molality of the nth substance listed, in mol/kg; details: 101 kPa, Liquid, Standard Abbe refractometry

O=P([O-])(O)O.[K+] [monopotassium phosphate] + O
Details | mass density, [1] [kg/m3] | refractive index, [2] | speed of sound, [1] [m/s]
298.15 K, m1 = 0.1 | 1007.01 | 1.3343 | 1506.5
298.15 K, m1 = 0.3 | 1026.44 | 1.3374 | 1524.5
298.15 K, m1 = 0.5 | 1046.68 | 1.3401 | 1542.1
298.15 K, m1 = 0.7 | 1066.58 | 1.3435 | –
298.15 K, m1 = 0.9 | 1088.28 | 1.3466 | 1577.6
303.15 K, m1 = 0.1 | 1005.58 | 1.3336 | 1518.4
303.15 K, m1 = 0.3 | 1025.15 | 1.3368 | 1536
303.15 K, m1 = 0.5 | 1045.29 | 1.3397 | 1553.2
303.15 K, m1 = 0.7 | 1065.65 | 1.3427 | 1570.1
303.15 K, m1 = 0.9 | 1087.42 | 1.3463 | 1587.9
308.15 K, m1 = 0.1 | 1004.16 | 1.333 | 1528.8
308.15 K, m1 = 0.3 | 1023.58 | 1.3361 | 1545.8
308.15 K, m1 = 0.5 | 1044.55 | 1.3392 | 1563.1
308.15 K, m1 = 0.7 | 1065.08 | 1.3423 | 1580
308.15 K, m1 = 0.9 | 1086.5 | 1.3455 | 1596.6

O=P(O)(O)O [phosphoric acid] + O
Details | mass density, 298.15 K [kg/m3] | mass density, 303.15 K [kg/m3] | mass density, 308.15 K [kg/m3] | refractive index, 298.15 K | refractive index, 303.15 K | refractive index, 308.15 K | speed of sound, 298.15 K [m/s] | speed of sound, 303.15 K [m/s] | speed of sound, 308.15 K [m/s]
[1], m1 = 0.1 | 1002.05 | 1000.62 | 998.962 | – | – | – | 1497.1 | 1509.2 | 1519.7
[1], m1 = 0.3 | 1011.37 | 1009.93 | 1008.27 | – | – | – | 1498.3 | 1510.2 | 1520.4
[1], m1 = 0.5 | 1021.09 | 1019.94 | 1018.07 | – | – | – | 1500 | 1511.6 | 1521.6
[1], m1 = 0.7 | 1030.49 | 1029.49 | 1028.12 | – | – | – | 1502 | 1513.2 | 1523
[1], m1 = 0.9 | 1040.62 | 1039.05 | 1037.8 | – | – | – | 1504.2 | 1515.1 | 1524.6
[2], m1 = 0.1 | – | – | – | 1.3334 | 1.3329 | 1.3323 | – | – | –
[2], m1 = 0.3 | – | – | – | 1.335 | 1.3345 | 1.3339 | – | – | –
[2], m1 = 0.5 | – | – | – | 1.3366 | 1.336 | 1.3356 | – | – | –
[2], m1 = 0.7 | – | – | – | 1.3381 | 1.3376 | 1.3371 | – | – | –
[2], m1 = 0.9 | – | – | – | 1.3397 | 1.3393 | 1.3388 | – | – | –

O=P([O-])(O)O.[Na+] [sodium dihydrogen phosphate] + O
Details | mass density, 298.15 K [kg/m3] | mass density, 303.15 K [kg/m3] | mass density, 308.15 K [kg/m3] | refractive index, 298.15 K | refractive index, 303.15 K | refractive index, 308.15 K | speed of sound, 298.15 K [m/s] | speed of sound, 303.15 K [m/s] | speed of sound, 308.15 K [m/s]
[1], m1 = 0.1 | 1006.23 | 1005.17 | 1004.2 | – | – | – | 1507.1 | 1519.2 | 1529.8
[1], m1 = 0.3 | 1024.26 | 1022.91 | 1021.13 | – | – | – | 1527.2 | 1538.5 | 1548.1
[1], m1 = 0.5 | 1043.03 | 1041.67 | 1039.97 | – | – | – | 1547.3 | 1558.2 | 1567.3
[1], m1 = 0.7 | 1062.08 | 1060.86 | 1060.09 | – | – | – | 1567.7 | 1577.8 | 1587.9
[1], m1 = 0.9 | 1081.28 | 1079.48 | 1080.28 | – | – | – | 1587.8 | 1579.2 | 1608.1
[2], m1 = 0.1 | – | – | – | 1.3346 | 1.334 | 1.3335 | – | – | –
[2], m1 = 0.3 | – | – | – | 1.3381 | 1.3376 | 1.3371 | – | – | –
[2], m1 = 0.5 | – | – | – | 1.3408 | 1.3412 | 1.3398 | – | – | –
[2], m1 = 0.7 | – | – | – | 1.344 | 1.3435 | 1.3428 | – | – | –
[2], m1 = 0.9 | – | – | – | 1.3492 | 1.3473 | 1.3466 | – | – | –

O=P([O-])([O-])[O-].[K+].[K+].[K+] [tripotassium phosphate] + O
Details | mass density, 298.15 K [kg/m3] | mass density, 303.15 K [kg/m3] | mass density, 308.15 K [kg/m3] | refractive index, 298.15 K | refractive index, 303.15 K | refractive index, 308.15 K | speed of sound, 298.15 K [m/s] | speed of sound, 303.15 K [m/s] | speed of sound, 308.15 K [m/s]
[1], m1 = 0.1 | 1017.14 | 1015.62 | 1013.92 | – | – | – | 1518.2 | 1529.8 | 1539.7
[1], m1 = 0.3 | 1057.82 | 1056.83 | 1054.87 | – | – | – | 1559.7 | 1570.2 | 1578.9
[1], m1 = 0.5 | 1101.23 | 1100.46 | 1098.72 | – | – | – | 1603 | 1616.1 | 1622.8
[1], m1 = 0.7 | 1145.91 | 1145.57 | 1144.26 | – | – | – | 1658.8 | 1666.7 | 1671.9
[1], m1 = 0.9 | 1191.53 | 1191.62 | 1190.09 | – | – | – | 1716.6 | 1723.7 | 1725.1
[2], m1 = 0.1 | – | – | – | 1.3365 | 1.3357 | 1.3351 | – | – | –
[2], m1 = 0.3 | – | – | – | 1.344 | 1.3435 | 1.3426 | – | – | –
[2], m1 = 0.5 | – | – | – | 1.3517 | 1.351 | 1.3502 | – | – | –
[2], m1 = 0.7 | – | – | – | 1.3595 | 1.3588 | 1.3581 | – | – | –
[2], m1 = 0.9 | – | – | – | 1.3671 | 1.3667 | 1.3659 | – | – | –
